In patent US20140221499A1, “NOVEL RODENT CONTROL AGENTS AND USES THEREOF” (priority 2011, published 2014) one finds EC50 data, which are given here for one compound.

By EC50 is commonly meant the midpoint of the concentration-response curve. Lower therefore signals greater potency.

The target in one experiment is T1, rTAAR9 (Rattus norvegicus, UniProt Q923Y6).
T1 construct: Full Taar coding regions were cloned into pcDNA3.1; expressed in transfected cells; host or cells: HEK293
T1 sequence (Q923Y6 1-338): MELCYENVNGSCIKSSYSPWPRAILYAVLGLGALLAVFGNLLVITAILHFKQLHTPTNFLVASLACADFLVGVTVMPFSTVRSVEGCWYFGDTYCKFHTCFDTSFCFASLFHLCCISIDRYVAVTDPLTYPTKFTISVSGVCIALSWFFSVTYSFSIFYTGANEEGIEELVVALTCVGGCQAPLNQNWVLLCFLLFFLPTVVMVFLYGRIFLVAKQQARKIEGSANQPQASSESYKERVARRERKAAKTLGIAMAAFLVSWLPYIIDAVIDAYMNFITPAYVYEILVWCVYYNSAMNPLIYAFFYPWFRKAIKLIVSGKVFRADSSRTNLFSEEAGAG
Put plainly: CRE-SEAP reporter gene assay in HEK293 cells transfected with rTAAR9. Particulars: FIG. 11A, functional with or without 'Rho tag', EC50 ± s.e.m., 4-parameter Hill equation. In kind it is cell-based. On the procedure: (§1) FIG. 11 illustrates the dose-dependent responses of TAARs to amines. HEK293 cells were cotransfected with plasmids encoding CRE-SEAP and rTAARs (a) or mTAARs (b), incubated with concentrations of ligands indicated, and assayed for reporter activity (triplicates±s.d.). EC50 values (±s.e.m, bottom right) were calculated using SigmaPlot (Systat Software) and a 4-parameter Hill equation.
(§2) The following mixes (10 μM of each indicated compounds) were tested for their ability to activate rat TAARs. Mix 1: butylamine, dibutylamine, hexylamine. Mix 2: 2-aminopentane, isoamylamine, isobutylamine, isopropylamine. Mix 3: N,N-dimethylcyclohexylamine, 1-methylindole, tryptamine, phenylethylamine. Mix 4: indole, 1-methylpyrrolidine, 1-methylpiperidine, pyrrolidine. […]
(§3) Full Taar coding regions were cloned into pcDNA3.1-(Invitrogen) with or without a 5′ DNA extension of 69 bp encoding the first 20 amino acids of bovine rhodopsin followed by a cloning linker ([…]). […] Fluorescence was measured on an EnVision plate reader (Perkin Elmer) and SEAP activity graphed as relative fluorescence of a phosphatase substrate.
(§4) Here, we set out to identify agonists for additional mouse and rat TAARs. […] Transfected cells were incubated with test chemicals, and phosphatase activity was quantified with a fluorescent substrate as a reporter for TAAR activation. […]
Background: Reporter assays use an easily measured gene product as a stand-in for the process of interest.

The next experiment has as its target T2, rTAAR7d (Rattus norvegicus, UniProt Q923X5).
T2 sequence (Q923X5 1-358): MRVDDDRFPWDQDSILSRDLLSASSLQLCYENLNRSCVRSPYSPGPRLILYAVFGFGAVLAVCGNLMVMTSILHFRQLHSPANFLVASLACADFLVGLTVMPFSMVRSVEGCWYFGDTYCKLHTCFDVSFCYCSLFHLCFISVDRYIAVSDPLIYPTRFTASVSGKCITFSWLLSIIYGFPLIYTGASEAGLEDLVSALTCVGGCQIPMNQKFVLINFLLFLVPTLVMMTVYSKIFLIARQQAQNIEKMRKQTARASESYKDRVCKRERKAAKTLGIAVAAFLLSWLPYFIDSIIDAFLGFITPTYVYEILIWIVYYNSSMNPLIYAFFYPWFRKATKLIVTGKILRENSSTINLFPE
Nature of the experiment: CRE-SEAP reporter gene assay in HEK293 cells transfected with rTAAR7d. In kind it is cell-based. Also noted: Full Taar coding regions were cloned into pcDNA3.1; expressed in transfected cells; host or cells: HEK293. Conditions: FIG. 11A, functional with or without 'Rho tag', EC50 ± s.e.m., 4-parameter Hill equation. On the procedure:
as §1, §2, §3, §4

Turning to `CN(C)C1CCCCC1` [N,N-DIMETHYLCYCLOHEXYLAMINE, N,N-dimethylcyclohexylamine], the figures for the EC50 at rTAAR9 and at rTAAR7d were 26.6 ± 1.9 µM and 4.6 ± 1.1 µM, respectively.
